According to patent US5712151A, “Antifungal agent” (Merck & Co., Inc., priority 1996, dated 1998):
≈ marks a conversion by molar mass, not a printed value.

How the values were obtained:
Format in all cases: cell-based
[1] = system: Candida albicans (MY1055); test: broth microdilution assay (MIC/MFC), Candida albicans (MY1055)
Procedure: (§1) In the microbroth dilution assay, microorganisms were selected by streaking a yeast culture on Sabouraud dextrose agar (SDA) incubating for 24-48 hours at 35°-37° C., thereafter selected 3 to 5 characteristic colonies and transferring to a fresh plate and incubating under similar conditions. From the regrowth, 3 to 5 colonies were selected and suspended in 10 milliliters of YM broth (Difco) and incubated for 4 hours at 35°-37° C. shaking at 225 rpm. The 4 hour broth cultures were adjusted optically to 86% transmission resulting in a concentration of 1-5×10^6 cfu/ml which was further diluted 1:100 in YNBD (yeast nitrogen base with 1% dextrose) to obtain a concentration of 1-5×10^4 cfu/ml for use as inocula. […]
(§2) The plates containing the diluted compounds were then inoculated with 75 μl/well of the appropriate microorganism and incubated for 48 hours at 35°-37° C. with MIC (minimum inhibitory concentration) determinations carried out after 24 hours of incubation (except Cryptococcus strains which are read at 48 hours). […]
(§3) After recording MICs at 24 hours, the microtiter plates were shaken gently to resuspend the cells. […] For Cryptococcus neoformans, SDA plates were inoculated at 48 hours after recording MICs and incubated 48 hours before reading the MFC. […]

[2] = system: Candida glabrata (MY1381); test: broth microdilution assay (MIC/MFC), Candida glabrata (MY1381); conditions: Nakaseomyces glabratus
Procedure: as §1, §2, §3

[3] = system: Candida parapsilosis (MY1010); test: broth microdilution assay (MIC/MFC), Candida parapsilosis (MY1010); conditions: Lodderomyces parapsilosis
Procedure: as §1, §2, §3

[4] = system: Candida pseudotropicalis (MY2099); test: broth microdilution assay (MIC/MFC), Candida pseudotropicalis (MY2099); conditions: Kluyveromyces marxianus
Procedure: as §1, §2, §3

[5] = system: Candida tropicalis (MY1124); test: broth microdilution assay (MIC/MFC), Candida tropicalis (MY1124)
Procedure: as §1, §2, §3

[6] = system: Candida albicans (CLY539); test: broth microdilution assay (MIC/MFC), Candida albicans (CLY539)
Procedure: as §1, §2, §3

Candida albicans (CA2) = test: broth microdilution assay (MIC/MFC), Candida albicans (CA2)
Procedure: as §1, §2, §3

[7] = system: Candida tropicalis (MY1012); test: broth microdilution assay (MIC/MFC), Candida tropicalis (MY1012)
Procedure: as §1, §2, §3

[8] = system: Candida guillermondii (MY1019); test: broth microdilution assay (MIC/MFC), Candida guillermondii (MY1019)
Procedure: as §1, §2, §3

Candida krusei = test: broth microdilution assay (MIC/MFC), Candida krusei; conditions: Pichia kudriavzevii
Procedure: as §1, §2, §3

[9] = system: Cryptococcus neoformans (MY2061); test: broth microdilution assay (MIC/MFC), Cryptococcus neoformans (MY2061); conditions: 48 hours, 35°-37° C., read-out: Minimum Inhibitory Concentration (MIC)
Procedure: as §1, §2, §3

[10] = system: Cryptococcus neoformans (MY2062); test: broth microdilution assay (MIC/MFC), Cryptococcus neoformans (MY2062); conditions: 48 hours
Procedure: as §1, §2, §3

[11] = system: Saccharomyces cerevisiae (MY2140); test: broth microdilution assay (MIC/MFC), Saccharomyces cerevisiae (MY2140)
Procedure: as §1, §2, §3

[12] = system: Aspergillus fumigatus (MY4839); test: broth microdilution assay (MIC), Aspergillus fumigatus (MY4839); conditions: read-out: Minimum Inhibitory Concentration (MIC)
Procedure: (§4) The test compound was dissolved at […] in 10% DMSO and diluted 2× into the first well to achieve a concentration of 256 μg/ml at 5% DMSO in the first well. Compounds are subsequently serially diluted 2× and cell suspension is added to each well resulting in an additional 2× dilution of compound. 75 μl of said solution is delivered to each well in column 1 of a 96-well, U-bottomed microtiter plate. The compounds in column 1 were then serially diluted two-fold to yield concentrations from 64 μg/ml to 0.03 μg/ml.
(§5) The plates containing the diluted compounds were then inoculated with 75 μl/well of the appropriate microorganism and incubated for 48 hours at 35°-37° C. with MIC (minimum inhibitory concentration) determinations carried out after 24 hours of incubation (except Cryptococcus strains which are read at 48 hours). Growth and sterility controls for each organism and sterility checks for the compounds also were carried out.

[13] = system: Aspergillus fumigatus (MY5668); test: broth microdilution assay (MIC), Aspergillus fumigatus (MY5668); conditions: read-out: Minimum Inhibitory Concentration (MIC)
Procedure: as §4, §5

panel of fungi = test: broth microdilution assay (MIC and MFC) against a panel of fungi; conditions: control compound amphotericin B
Procedure: as §1, §2, §3

[14] = system: filamentous fungi (Aspergillus flavus, Fusarium oxysporum, Ustilago zeae and the like); test: agar plate inhibition zone test with filamentous fungi; conditions: methanol solutions on agar plates; 28° C. or 37° C., 24 hours
Procedure: The compound is also useful for inhibiting the growth of filamentous fungi. Such use may be illustrated in the following tests with Aspergillus flavus, Fusarium oxysporum, Ustilago zeae and the like. Inocula for filamentous fungi are prepared by scraping the surface of stock plates maintained on potato dextrose agar with a moistened sterile dacron swab. The spores and mycelia are then suspended in 10 milliliters of sterile potato dextrose broth and adjusted to 70 percent transmission at 660 nm. The samples to be tested for production of antifungal agent are applied directly to the agar plates as methanol solutions. When the sample to be tested is crude broth, it may be centrifuged prior to application. The assay plates are then incubated at either 28° C. or 37° C. for 24 hours. Following incubation, the inhibition zones are measured. Growths are also noted as to appearance.

[15] = 24 hours, 35°-37° C., read-out: Minimum Inhibitory Concentration (MIC)
[16] = no growth or ≤4 colonies on SDA, read-out: Minimum Fungicidal Concentration (MFC)

Which MIC [1, 15] does the source give for C=CC(CCCCC)C1=C(C(=O)C2C3C(C)CC(C(=O)OC)C(O)C3C(O)C2(O)C(=O)/C=C/C)C(=O)NC1=O (centres unmarked) [Compound I] here?
The MIC was < 0.03 µg/mL.

What about the MFC [1, 16] of the same molecule?
Its MFC is 0.06 µg/mL (≈ 0.11 µM).

What about the MIC [2, 15] of the same molecule?
Its MIC is 16 µg/mL (≈ 29.3 µM).

And the MFC [2, 16]?
The MFC was 32 µg/mL (≈ 58.6 µM).

What about the MIC [3, 15] of the same molecule?
Its MIC is < 0.03 µg/mL.

What about the MFC [3, 16] of the same molecule?
Its MFC is < 0.03 µg/mL.

What about the MIC [4, 15] of the same molecule?
The MIC was 2 µg/mL (≈ 3.67 µM).

What about the MFC [4, 16] of the same molecule?
Its MFC is 4 µg/mL (≈ 7.33 µM).

And the MIC [5, 15]?
The MIC was 4 µg/mL (≈ 7.33 µM).

And the MFC [5, 16]?
The MFC was 8 µg/mL (≈ 14.7 µM).

What about the MIC [6, 15] of the same molecule?
Its MIC is 0.06 µg/mL (≈ 0.11 µM).

What about the MFC [6, 16] of the same molecule?
Its MFC is 0.125 µg/mL (≈ 0.229 µM).

What about the MIC (Candida albicans (CA2); [15]) of the same molecule?
The MIC was 0.125 µg/mL (≈ 0.229 µM).

What about the MFC (Candida albicans (CA2); [16]) of the same molecule?
The MFC was 0.25 µg/mL (≈ 0.458 µM).

What about the MIC [7, 15] of the same molecule?
The MIC was 1 µg/mL (≈ 1.83 µM).

What about the MFC [7, 16] of the same molecule?
The MFC was 2 µg/mL (≈ 3.67 µM).

And the MIC [8, 15]?
Its MIC is 2 µg/mL (≈ 3.67 µM).

What about the MFC [8, 16] of the same molecule?
Its MFC is 16 µg/mL (≈ 29.3 µM).

What about the MIC (Candida krusei; [15]) of the same molecule?
The MIC was 0.06 µg/mL (≈ 0.11 µM).

What about the MFC (Candida krusei; [16]) of the same molecule?
The MFC was 0.5 µg/mL (≈ 0.916 µM).

And the MIC [9]?
Its MIC is < 0.03 µg/mL.

What about the MIC ([10]; 35°-37° C., read-out: Minimum Inhibitory Concentration (MIC)) of the same molecule?
Its MIC is < 0.03 µg/mL.

What about the MFC [10, 16] of the same molecule?
The MFC was < 0.03 µg/mL.

And the MIC ([11]; Saccharomyces cerevisiae (MY2140), 24 hours, 35°-37° C., read-out: Minimum Inhibitory Concentration (MIC))?
The MIC was 4 µg/mL (≈ 7.33 µM).

And the MFC ([11]; Saccharomyces cerevisiae, read-out: Minimum Fungicidal Concentration (MFC))?
Its MFC is 0.5 µg/mL (≈ 0.916 µM).

And the MIC [12]?
Its MIC is < 0.03 µg/mL.

And the MIC [13]?
The MIC was 1 µg/mL (≈ 1.83 µM).

What about the “effectiveness against a panel of fungi (MIC and MFC) relative to amphotericin B” value (panel of fungi) of the same molecule?
The value was “effective at concentrations comparable to an established antifungal agent, amphotericin B”.

What about the “inhibition of growth of filamentous fungi (inhibition zones)” value [14] of the same molecule?
Its value is “effectively inhibit growth of the fungal organisms”.
